Data from patent publication US20220193386A1, “MICRONEEDLE ARRAYS FOR CANCER THERAPY APPLICATIONS” (University of Pittsburgh - Of the Commonwealth System of …, priority 2014, published 2022).

Tests used:
epidermal cells = conditions: pyramidal CMC-microneedle arrays, 5 mg/g of CMC, arrays removed after 5 minutes, 72 hours of exposure
Experimental: Cytoxan® was integrated at a concentration of 5 mg/g of CMC, enabling delivery of approximately about 140 μg per array. This is a therapeutically relevant concentration based on the area of skin targeted, yet well below levels associated with systemic toxicities. Living human skin organ cultures were used to assess the cytotoxicity of Cytoxan®. Cytoxan® was delivered by application of arrays to skin explants as we previously described. Arrays and residual material were removed 5 minutes after application, and after 72 hours of exposure, culture living skin explants were cryo-sectioned and fixed. Apoptosis was evaluated using green fluorescent TUNEL assay (In Situ Cell Death Detection Kit, TMR Green, Roche, cat #:11-684-795-910).

B16 melanoma = B16 melanoma model: MNA treatment of established cutaneous tumors, tumor growth and survival; conditions: MNAs once weekly for three weeks, established B16 skin tumors; for tumor growth: vs untreated; for survival: untreated 100% mortality, through day 70
Experimental: The B16 melanoma model was used as a model tumor to test these novel approaches.
B16 skin tumors were established in normal mice by injection. Visible established cutaneous tumors were treated once weekly for three weeks with MNAs containing either doxorubicin alone, Poly(I:C) alone, or doxorubicin and Poly(I:C) incorporated into the same MNA. […] Tumor growth and survival were measured regularly for the duration of the study.

human skin = assay: Apoptosis and necrosis in human skin at the doxorubicin MNA dose; conditions: MNA dose of doxorubicin chosen for the B16 study
OVA = assay: OVA-specific CTL activity in vivo after CMC-microneedle array immunization; parameters: species or system mice; conditions: pyramidal CMC-microneedle arrays on mouse ears, 5 minutes, boosted one week later
Excerpt: To directly evaluate the immunogenicity of CMC microneedle array incorporated antigens, the well characterized model antigen ovalbumin was used. Pyramidal arrays were fabricated incorporating either soluble ovalbumin (sOVA), particulate ovalbumin (pOVA), or arrays containing both pOVA along with CpGs. The adjuvant effects of CpGs are well characterized in animal models, and their adjuvanticity in humans is currently being evaluated in clinical trials.
Immunization was achieved by applying antigen containing CMC-microneedle arrays to the ears of anesthetized mice using a spring-loaded applicator as described above, followed by removal of the arrays 5 minutes after application. These pyramidal microneedle arrays contained about 5 wt % OVA in CMC and about 0.075 wt % (20 μM) CpG. As a positive control, gene gun based genetic immunization strategy using plasmid DNA encoding OVA was used.
Mice were immunized, boosted one week later, and then assayed for OVA-specific CTL activity in vivo. […] It is well established that similar responses require substantially higher doses of antigen when delivered by traditional needle injection.
To evaluate the stability of fabricated arrays, batches of arrays were fabricated, stored, and then used over an extended period of time. […]

| Compound | tumor growth (B16 melanoma) | survival (B16 melanoma) | OVA-specific CTL activity in vivo (OVA) | further results |
| --- | --- | --- | --- | --- |
| O=P1(N(CCCl)CCCl)NCCCO1 (centres unmarked) [Cytoxan®, cyclophosphamide] | – | – | – | apoptosis of epidermal cells (TUNEL) (epidermal cells): extensive apoptosis of epidermal cells |
| COc1cccc2c1C(=O)c1c(O)c3c(c(O)c1C2=O)C[C@@](O)(C(=O)CO)C[C@@H]3O[C@H]1C[C@H](N)[C@H](O)[C@H](C)O1 [doxorubicin] | slowed tumor growth | 30% | – | apoptosis / necrosis in human skin (human skin): induces apoptosis in human skin without causing necrosis |
| Poly(I:C) | slowed tumor growth | 50% | – | – |
| particulate OVA: particulate ovalbumin model antigen incorporated in pyramidal CMC microneedle arrays | – | – | Significant OVA-specific CTL activity | – |
| soluble OVA: soluble ovalbumin model antigen incorporated in pyramidal CMC microneedle arrays | – | – | Significant OVA-specific CTL activity | – |
